Data as given in PubChem BioAssay AID248 (DTP/NCI, 2004).
Values joined by “and” are separate entries in the source; they are usually repeats but may differ in a detail not shown here. Equal entries are not always repeated. Inconclusive results and toxic doses are left out. Cut-off read from the data, not from the text of the source: active = T/C of 150% or more; inactive = T/C below 125%.

System: L1210 leukemia ip in BDF1 mice, survival T/C
Test: NCI In Vivo Anticancer Drug Screen. Data for tumor model L1210 Leukemia (intraperitoneal) in B6D2F1 (BDF1) mice
Conditions: endpoint: mean survival time, higher = longer survival
Summary of the method: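 Transplantable tumor model; survival measured in treated vs vehicle control mice. Value = treated/control.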

[1] = dose: 100.0 mg/kg/injection, schedule: Q01DX001 (ip), vehicle: other
[2] = dose: 100.0 mg/kg/injection, schedule: Q01DX009 (ip), vehicle: saline with Tween-80
[3] = dose: 100.0 mg/kg/injection, schedule: Q04DX002 (ip), vehicle: Klucel (hydroxypropylcellulose) (HPC)
[4] = dose: 100.0 mg/kg/injection, schedule: Q04DX003 (ip), vehicle: saline with Tween-80
[5] = dose: 200.0 mg/kg/injection, schedule: Q01DX009 (ip), vehicle: saline with Tween-80
[6] = dose: 200.0 mg/kg/injection, schedule: Q04DX002 (ip), vehicle: Klucel (hydroxypropylcellulose) (HPC)
[7] = dose: 200.0 mg/kg/injection, schedule: Q04DX003 (ip), vehicle: saline with Tween-80
[8] = dose: 400.0 mg/kg/injection, schedule: Q01DX001 (ip), vehicle: other
[9] = dose: 400.0 mg/kg/injection, schedule: Q01DX009 (ip), vehicle: saline with Tween-80
[10] = dose: 400.0 mg/kg/injection, schedule: Q04DX003 (ip), vehicle: saline with Tween-80
[11] = dose: 100.0 mg/kg/injection, schedule: Q01DX001 (ip), vehicle: Klucel (hydroxypropylcellulose) (HPC)
[12] = dose: 100.0 mg/kg/injection, schedule: Q04DX003 (ip), vehicle: Klucel (hydroxypropylcellulose) (HPC)
[13] = dose: 200.0 mg/kg/injection, schedule: Q04DX003 (ip), vehicle: Klucel (hydroxypropylcellulose) (HPC)
[14] = dose: 400.0 mg/kg/injection, schedule: Q04DX003 (ip), vehicle: Klucel (hydroxypropylcellulose) (HPC)
[15] = dose: 100.0 mg/kg/injection, schedule: Q04DX002 (ip), vehicle: saline
[16] = dose: 200.0 mg/kg/injection, schedule: Q04DX002 (ip), vehicle: saline
[17] = dose: 400.0 mg/kg/injection, schedule: Q04DX002 (ip), vehicle: saline
[18] = dose: 10.0 mg/kg/injection, schedule: Q01DX001 (ip), vehicle: saline
[19] = dose: 20.0 mg/kg/injection, schedule: Q01DX001 (ip), vehicle: saline
[20] = dose: 100.0 mg/kg/injection, schedule: Q01DX009 (ip), vehicle: Klucel (hydroxypropylcellulose) (HPC)
[21] = dose: 200.0 mg/kg/injection, schedule: Q01DX009 (ip), vehicle: Klucel (hydroxypropylcellulose) (HPC)
[22] = dose: 400.0 mg/kg/injection, schedule: Q01DX009 (ip), vehicle: Klucel (hydroxypropylcellulose) (HPC)

Measured: T/C

C(=C\c1ccccc1)/C=N/N=C/C=C/c1ccccc1
inactive: [1] 105 % of control | [2] 94 % of control | [3] 100 % of control | [4] 90 % of control | dose: 200.0 mg/kg/injection, schedule: Q01DX001 (ip), vehicle: other 97 % of control | [5] 90 % of control | [6] 96 % of control | [7] 89 % of control | [8] 94 % of control | [9] 94 % of control | dose: 400.0 mg/kg/injection, schedule: Q04DX002 (ip), vehicle: Klucel (hydroxypropylcellulose) (HPC) 100 % of control | [10] 92 % of control

O=C(Nc1ccccc1CSc1nc2nc[nH]c(=O)c2[nH]1)c1ccc(S(=O)(=O)F)cc1
inactive: dose: 25.0 mg/kg/injection, schedule: Q01DX001 (ip), vehicle: Klucel (hydroxypropylcellulose) (HPC) 108 % of control | dose: 50.0 mg/kg/injection, schedule: Q01DX001 (ip), vehicle: Klucel (hydroxypropylcellulose) (HPC) 111 % of control | [11] 114 % of control

Cc1c(O)ccc2c1OCC2=O
inactive: [11] 91 % of control | [12] 104 % of control | dose: 200.0 mg/kg/injection, schedule: Q01DX001 (ip), vehicle: Klucel (hydroxypropylcellulose) (HPC) 94 % of control | [13] 98 % of control | dose: 400.0 mg/kg/injection, schedule: Q01DX001 (ip), vehicle: Klucel (hydroxypropylcellulose) (HPC) 98 % of control | [14] 93 % of control

CCC(C)C(CCCCN1CCCC1)(CNC(=O)CN(CC)CC)c1cccc2ccccc12 (centres undefined)
inactive: dose: 12.5 mg/kg/injection, schedule: Q01DX009 (ip), vehicle: saline 95 % of control | dose: 12.5 mg/kg/injection, schedule: Q04DX003 (ip), vehicle: saline 92 % of control | dose: 25.0 mg/kg/injection, schedule: Q01DX009 (ip), vehicle: saline 101 % of control | dose: 25.0 mg/kg/injection, schedule: Q04DX003 (ip), vehicle: saline 93 % of control | dose: 50.0 mg/kg/injection, schedule: Q01DX009 (ip), vehicle: saline 106 % of control | dose: 50.0 mg/kg/injection, schedule: Q04DX003 (ip), vehicle: saline 92 % of control

CCCCCCCc1ccc(C(C)=O)cc1
inactive: [4] 100 % of control | dose: 132.0 mg/kg/injection, schedule: Q04DX003 (ip), vehicle: saline with Tween-80 97 % of control | [7] 101 % of control | dose: 300.0 mg/kg/injection, schedule: Q04DX003 (ip), vehicle: saline with Tween-80 93 % of control | [10] 108 % of control

CCC(C)COC(=O)Nc1cccc(OC(=O)NC)c1 (centres undefined)
inactive: [4] 97 % of control | [7] 102 % of control | [10] 102 % of control

CN1CCN(C(=O)C2CCCCC2C(=O)O)CC1 (centres undefined)
inactive: [15] 107 % of control | [16] 107 % of control | [17] 96 % of control

CCCCCN(CCCCC)CC(O)C1c2ccccc2Cc2ccccc21 (centres undefined)
inactive: dose: 5.0 mg/kg/injection, schedule: Q01DX001 (ip), vehicle: saline 102 % of control | [18] 98 % of control | [19] 102 % of control | dose: 40.0 mg/kg/injection, schedule: Q01DX001 (ip), vehicle: saline 104 % of control | dose: 100.0 mg/kg/injection, schedule: Q01DX001 (ip), vehicle: saline 101 % of control

O=CNCC(=O)O
inactive: [15] 92 % of control | dose: 100.0 mg/kg/injection, schedule: Q04DX003 (ip), vehicle: saline 97 % of control | [16] 95 % of control | dose: 200.0 mg/kg/injection, schedule: Q04DX003 (ip), vehicle: saline 94 % of control | [17] 92 % of control | dose: 400.0 mg/kg/injection, schedule: Q04DX003 (ip), vehicle: saline 106 % of control

Cc1n[nH]c(C)c1N=NN1CCOCC1
inactive: [18] 100 % of control and 107 % of control | [19] 107 % of control and 124 % of control | dose: 30.0 mg/kg/injection, schedule: Q01DX001 (ip), vehicle: saline 105 % of control

Cc1ccc(NC(C(=O)O)c2ccccc2)cc1 (centres undefined)
inactive: [3] 104 % of control | [6] 111 % of control

Cc1cc([N+](=O)[O-])c(Nc2cccc(O)c2)c([N+](=O)[O-])c1
inactive: [20] 108 % of control | [12] 101 % of control | [21] 102 % of control | [13] 95 % of control | [22] 116 % of control | [14] 101 % of control

Oc1ccc(C2CCc3ccccc32)cc1 (centres undefined)
inactive: [20] 100 % of control | [12] 95 % of control | [21] 104 % of control | [13] 100 % of control | [22] 95 % of control | [14] 93 % of control

CC1(c2ccc(O)cc2)CCC(C(C)(C)c2ccc(O)cc2)CC1 (centres undefined)
inactive: [2] 107 % of control | [5] 107 % of control

CSC1SCC2C(=O)N(C)C(C(C)C)C(=O)OCC(NC(=O)c3cnc4ccccc4n3)C(=O)NC(C)C(=O)N(C)C1C(=O)N(C)C(C(C)C)C(=O)OCC(NC(=O)c1cnc3ccccc3n1)C(=O)NC(C)C(=O)N2C (centres undefined)
inactive: dose: 0.4 micrograms/kg/injection, schedule: Q01DX009 (ip), vehicle: saline with Tween-80 97 % of control | dose: 0.9 micrograms/kg/injection, schedule: Q01DX009 (ip), vehicle: saline with Tween-80 102 % of control | dose: 1.9 micrograms/kg/injection, schedule: Q01DX009 (ip), vehicle: saline with Tween-80 97 % of control | dose: 3.8 micrograms/kg/injection, schedule: Q01DX009 (ip), vehicle: saline with Tween-80 102 % of control | dose: 7.5 micrograms/kg/injection, schedule: Q01DX009 (ip), vehicle: saline with Tween-80 115 % of control | dose: 15.0 micrograms/kg/injection, schedule: Q01DX009 (ip), vehicle: saline with Tween-80 117 % of control

CCOC(=O)C1(C)C(=O)CC2c3nc4ccccc4cc3CN2C1=O (centres undefined)
inactive: [20] 109 % of control | [12] 107 % of control | [21] 113 % of control | [13] 100 % of control | [22] 92 % of control | [14] 97 % of control

COC(=O)C(CSCSC)NC(=O)/C=C/c1ccccc1C (centres undefined)
inactive: [2] 101 % of control | [4] 95 % of control | [5] 101 % of control | [7] 93 % of control | [9] 113 % of control | [10] 97 % of control

C=NC1CCCCC1
inactive: dose: 100.0 mg/kg/injection, schedule: Q04DX002 (ip), vehicle: gum acacia 105 % of control | dose: 200.0 mg/kg/injection, schedule: Q04DX002 (ip), vehicle: gum acacia 105 % of control | dose: 400.0 mg/kg/injection, schedule: Q04DX002 (ip), vehicle: gum acacia 92 % of control

O=C1C2C(=C3CCCCC3)C=CC2C1(c1ccccc1)c1ccccc1 (centres undefined)
inactive: [12] 101 % of control | [13] 95 % of control | [14] 94 % of control

Cc1ccccc1N=NN(C)C
inactive: dose: 100.0 mg/kg/injection, schedule: Q01DX001 (ip), vehicle: carboxymethylcellulose (CMC) 106 % of control | dose: 200.0 mg/kg/injection, schedule: Q01DX001 (ip), vehicle: carboxymethylcellulose (CMC) 106 % of control

O=C(CCCC(=O)N/N=C/c1ccc2ccccc2n1)N/N=C\c1ccc2ccccc2n1
inactive: dose: 50.0 mg/kg/injection, schedule: Q01DX001 (ip), vehicle: other 95 % of control | [1] 88 % of control | [8] 95 % of control

Cc1cc(N=Nc2ccccc2C)ccc1N
inactive: dose: 3.0 mg/kg/injection, schedule: Q01DX009 (ip), vehicle: DMSO 97 % of control | dose: 6.0 mg/kg/injection, schedule: Q01DX009 (ip), vehicle: DMSO 90 % of control | dose: 12.0 mg/kg/injection, schedule: Q01DX009 (ip), vehicle: DMSO 98 % of control | dose: 12.5 mg/kg/injection, schedule: Q01DX009 (ip), vehicle: DMSO 95 % of control | dose: 12.5 mg/kg/injection, schedule: Q04DX003 (ip), vehicle: DMSO 100 % of control | dose: 25.0 mg/kg/injection, schedule: Q04DX003 (ip), vehicle: DMSO 98 % of control | dose: 50.0 mg/kg/injection, schedule: Q04DX003 (ip), vehicle: DMSO 96 % of control
